Measurements from patent US20230322785A1, “ADENOSINE A2A AND A2B RECEPTOR DUAL ANTAGONISTS FOR IMMUNO-ONCOLOGY” (Merck Sharp & Dohme LLC, priority 2020, published 2023).

target: T1, human A2A adenosine receptor (Homo sapiens, UniProt P29274); assay: A2A binding affinity, Method (B): scintillation proximity assay (SPA) with [3H]SCH58261; conditions: membranes of HEK293 or CHO cells expressing the human receptor
T1 construct: expressed in transfected cells; host or cells: HEK293 or CHO cells
Text: Method (A) describes the procedure used to measure A2A binding affinity using radioligand binding. Method (B) describes the procedure used to measure A2A binding affinity using SPA technology. The method used to measure A2B binding affinity is also described below. The method used to determine the A2A IC50 value reported for each compound in the table is indicated next to the reported value. The A2B IC50 value measured using the A2B binding affinity assay is shown in the table next to the compound under the corresponding A2A value.
The A2A receptor affinity binding assay measured the amount of binding of a tritiated ligand with high affinity for the A2A adenosine receptor to membranes made from HEK293 or CHO cells recombinantly expressing the human A2A adenosine receptor, in the presence of varying concentrations of a compound of the invention. The data were generated using either filtration binding or a homogenous scintillation proximity assay (SPA).
Method (B): Measurement of A2A Binding Affinity Using SPA
Binding affinity using SPA was conducted as follows. Test compounds (50 nL) were dispensed into individual wells of a 384-well OptiPlate™ well (Perkin Elmer) by Echo® acoustic liquid transfer (Labcyte). 20 µL of 1.25 nM [^3H] SCH58261 ((7-(2-phenylethyl)-5-amino-2-(2-furyl)-pyrazolo-[4,3-e]-1,2,4-triazolo[1,5-c]pyrimidine)) in DPBS assay buffer (Dulbecco’s phosphate buffered saline without calcium and magnesium, ThermoFisher Scientific, Cat. No. A1285601) supplemented with 10 mM MgCl2 was added. A2A receptor-expressing membranes were incubated with 20 µg/mL adenosine deaminase (Roche, Cat. No. 10 102 105 001) for 15 min at room temperature. The receptor-expressing membranes were then combined with wheat germ agglutinin-coated yttrium silicate SPA beads (GE Healthcare, Cat. No. RPNQ0023) in a ratio of […] (w/w) and incubated for 30 min at room temperature. 30 µL of the membrane/bead mixture (0.25 µg and 25 µg per well respectively) were added to the 384-well OptiPlate™ well. To define total and non-specific binding, wells containing 1% DMSO or 1 µM CGS 15943 (Tocris Bioscience, Cat. No. 1699) respectively were also included in the experiment. The plate was incubated for 1 h at room temperature with agitation. The assay plate was then incubated for an h to allow the beads to settle before data were collected using a TopCount® (Perkin Elmer) scintillation counter. After normalization to total and non-specific binding, the percent effect at each compound concentration was calculated. The plot of percent effect versus the log of compound concentration was analyzed electronically using a 4-parameter logistic fit based on the Levenberg-Marquardt algorithm to generate IC50 values.

T1 sequence (P29274 whole entry): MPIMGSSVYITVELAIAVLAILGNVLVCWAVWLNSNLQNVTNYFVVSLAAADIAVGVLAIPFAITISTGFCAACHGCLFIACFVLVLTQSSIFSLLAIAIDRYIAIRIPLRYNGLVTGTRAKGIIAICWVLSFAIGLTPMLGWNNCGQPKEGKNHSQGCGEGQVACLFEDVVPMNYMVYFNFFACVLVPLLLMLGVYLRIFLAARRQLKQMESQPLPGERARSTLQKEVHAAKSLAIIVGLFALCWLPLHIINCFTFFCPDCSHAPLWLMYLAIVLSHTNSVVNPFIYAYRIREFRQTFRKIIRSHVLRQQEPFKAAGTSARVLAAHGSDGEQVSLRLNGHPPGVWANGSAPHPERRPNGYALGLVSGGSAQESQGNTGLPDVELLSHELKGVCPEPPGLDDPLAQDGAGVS

IC50 | Structure (SMILES)
3.2 nM | CCN(Cc1ccc(C(F)(F)F)cc1)Cc1nc2c3cccc(OC)c3nc(N)n2n1 [Example 15.1, 2-((ethyl(4-(trifluoromethyl)benzyl)amino)methyl)-7-methoxy-[1,2,4]triazolo[1,5-c]quinazolin-5-amine]
3 nM | COc1cccc2c1nc(N)n1nc(CN(Cc3ccc(C(F)(F)F)cc3)CC3CC3)nc21 [Example 15.2, 2-(((cyclopropylmethyl)(4-(trifluoromethyl)benzyl)amino)methyl)-7-methoxy-[1,2,4]triazolo[1,5-c]quinazolin-5-amine]
2.3 nM | CCCN(Cc1ccc(C(F)(F)F)cc1)Cc1nc2c3cccc(OC)c3nc(N)n2n1 [Example 15.3, 7-methoxy-2-((propyl(4-(trifluoromethyl)benzyl)amino)methyl)-[1,2,4]triazolo[1,5-c]quinazolin-5-amine]
4.2 nM | COc1cccc2c1nc(N)n1nc(CN(Cc3ccc(C(F)(F)F)cc3)CC(C)C)nc21 [Example 15.4, 2-((isobutyl(4-(trifluoromethyl)benzyl)amino)methyl)-7-methoxy-[1,2,4]triazolo[1,5-c]quinazolin-5-amine]
101 nM | COc1cccc2c1nc(N)n1nc(CN(CCC(C)C)Cc3ccc(C(F)(F)F)cc3)nc21 [Example 15.5, 2-((isopentyl(4-(trifluoromethyl)benzyl)amino)methyl)-7-methoxy-[1,2,4]triazolo[1,5-c]quinazolin-5-amine]
7.1 nM | COc1cccc2c1nc(N)n1nc(CN(CCC3CC3)Cc3ccc(C(F)(F)F)cc3)nc21 [Example 15.6, 2-(((2-cyclopropylethyl)(4-(trifluoromethyl)benzyl)amino)methyl)-7-methoxy-[1,2,4]triazolo[1,5-c]quinazolin-5-amine]
3.9 nM | COc1cccc2c1nc(N)n1nc(CN(Cc3ccc(OC(F)(F)F)cc3)CC3CC3)nc21 [Example 15.7, 2-(((cyclopropylmethyl)(4-(trifluoromethoxy)benzyl)amino)methyl)-7-methoxy-[1,2,4]triazolo[1,5-c]quinazolin-5-amine]
3.2 nM | CCN(Cc1ccc(OC(F)(F)F)cc1)Cc1nc2c3cccc(OC)c3nc(N)n2n1 [Example 15.8, 2-((ethyl(4-(trifluoromethoxy)benzyl)amino)methyl)-7-methoxy-[1,2,4]triazolo[1,5-c]quinazolin-5-amine]
123 nM | COc1cccc2c1nc(N)n1nc(CN(Cc3ccc(OC(F)(F)F)cc3)CC3CCCC3)nc21 [Example 15.9, 2-(((cyclopentylmethyl)(4-(trifluoromethoxy)benzyl)amino)methyl)-7-methoxy-[1,2,4]triazolo[1,5-c]quinazolin-5-amine]
8.5 nM | COc1cccc2c1nc(N)n1nc(CN(Cc3ccc(OC(F)(F)F)cc3)CC3CCC3)nc21 [Example 15.10, 2-(((cyclobutylmethyl)(4-(trifluoromethoxy)benzyl)amino)methyl)-7-methoxy-[1,2,4]triazolo[1,5-c]quinazolin-5-amine]
123 nM | COc1cccc2c1nc(N)n1nc(CN(Cc3ccc(OC(F)(F)F)cc3)CC3CCCCC3)nc21 [Example 15.11, 2-(((cyclohexylmethyl)(4-(trifluoromethoxy)benzyl)amino)methyl)-7-methoxy-[1,2,4]triazolo[1,5-c]quinazolin-5-amine]
23.6 nM | COc1cccc2c1nc(N)n1nc(CN(CCc3ccc(C(F)(F)F)cc3)CC3CCC3)nc21 [Example 15.12, 2-(((cyclobutylmethyl)(4-(trifluoromethyl)phenethyl)amino)methyl)-7-methoxy-[1,2,4]triazolo[1,5-c]quinazolin-5-amine]
7.9 nM | COc1cccc2c1nc(N)n1nc(CN(C)CCc3ccc(C(F)(F)F)cc3)nc21 [Example 15.13, 7-methoxy-2-((methyl(4-(trifluoromethyl)phenethyl)amino)methyl)-[1,2,4]triazolo[1,5-c]quinazolin-5-amine]
16.5 nM | COCCN(CCc1ccc(C(F)(F)F)cc1)Cc1nc2c3cccc(OC)c3nc(N)n2n1 [Example 15.14, 7-methoxy-2-(((2-methoxyethyl)(4-(trifluoromethyl)phenethyl)amino)methyl)-[1,2,4]triazolo[1,5-c]quinazolin-5-amine]
6.6 nM | COCCN(Cc1ccc(C(F)(F)F)cc1)Cc1nc2c3cccc(OC)c3nc(N)n2n1 [Example 15.15, 7-methoxy-2-(((2-methoxyethyl)(4-(trifluoromethyl)benzyl)amino)methyl)-[1,2,4]triazolo[1,5-c]quinazolin-5-amine]

Second part, the molecule before the results:

Structure (SMILES) | IC50
COc1cccc2c1nc(N)n1nc(CN(C)c3cccnc3Br)nc21 [Example 10.3, 2-(((2-bromopyridin-3-yl)(methyl)amino)methyl)-7-methoxy-[1,2,4]triazolo[1,5-c]quinazolin-5-amine] | 41.6 nM
CCNCc1nc2c3cccc(OC)c3nc(N)n2n1 [Example 10.4, 2-((ethylamino)methyl)-7-methoxy-[1,2,4]triazolo[1,5-c]quinazolin-5-amine] | 46 nM
COc1cccc2c1nc(N)n1nc(CNCC(F)(F)F)nc21 [Example 10.5, 7-methoxy-2-(((2,2,2-trifluoroethyl)amino)methyl)-[1,2,4]triazolo[1,5-c]quinazolin-5-amine] | 5.9 nM
COc1cccc2c1nc(N)n1nc(CCCNCc3ccc(C(F)(F)F)cc3)nc21 [Example 10.6, 7-methoxy-2-(3-((4-(trifluoromethyl)benzyl)amino)propyl)-[1,2,4]triazolo[1,5-c]quinazolin-5-amine] | 8.7 nM
COc1cccc2c1nc(N)n1nc(CCCNCc3ccc(S(F)(F)(F)(F)F)cc3)nc21 [Example 10.7, 7-methoxy-2-(3-((4-(pentafluoro-λ^6-sulfaneyl)benzyl)amino)propyl)-[1,2,4]triazolo[1,5-c]quinazolin-5-amine] | 45.2 nM
COc1cccc2c1nc(N)n1nc(CN[C@H](C)C(F)(F)F)nc21 [Example 10.8, (R)-7-methoxy-2-(((1,1,1-trifluoropropan-2-yl)amino)methyl)-[1,2,4]triazolo[1,5-c]quinazolin-5-amine] | 3.9 nM
COc1cccc2c1nc(N)n1nc(CN[C@@H](C)C(F)(F)F)nc21 [Example 10.9] | 5.9 nM
COc1cccc2c1nc(N)n1nc(CNC(C)(C)C(F)(F)F)nc21 [Example 10.10, 7-methoxy-2-(((1,1,1-trifluoro-2-methylpropan-2-yl)amino)methyl)-[1,2,4]triazolo[1,5-c]quinazolin-5-amine] | 4.8 nM
COc1cccc2c1nc(N)n1nc(CN(C)c3cccc(Br)n3)nc21 [Example 10.11, 2-(((6-bromopyridin-2-yl)(methyl)amino)methyl)-7-methoxy-[1,2,4]triazolo [1,5-c]quinazolin-5-amine] | 2.2 nM
COc1cccc2c1nc(N)n1nc(CNCC3CC3)nc21 [Example 10.12, 2-(((cyclopropylmethyl)amino)methyl)-7-methoxy-[1,2,4]triazolo[1,5-c]quinazolin-5-amine] | 27.3 nM
COc1cccc2c1nc(N)n1nc(CN(CC(C)O)CC(C)O)nc21 (stereo not drawn) [Example 10.13, 1,1-(((5-amino-7-methoxy-[1,2,4]triazolo[1,5-c]quinazolin-2-yl)methyl)azanediyl)bis(propan-2-ol)] | 32.2 nM
COc1cccc2c1nc(N)n1nc(CNCC3(c4cccc(F)c4)CCOCC3)nc21 [Example 10.14, 2-((((4-(3-fluorophenyl)tetrahydro-2H-pyran-4-yl)methyl)amino)methyl)-7-methoxy-[1,2,4]triazolo[1,5-c]quinazolin-5-amine] | 6.4 nM
COc1cccc2c1nc(N)n1nc(CN(CC(C)F)CC(C)F)nc21 (stereo not drawn) [Example 13.1, 2-((bis(2-fluoropropyl)amino)methyl)-7-methoxy-[1,2,4]triazolo[1,5-c]quinazolin-5-amine] | 3.3 nM
COc1cccc2c1nc(N)n1nc(CNCC3CCN(c4ncc(F)cn4)CC3)nc21 [Example 14.3, 2-((((1-(5-fluoropyrimidin-2-yl)piperidin-4-yl)methyl)amino)methyl)-7-methoxy-[1,2,4]triazolo[1,5-c]quinazolin-5-amine] | 10 nM
COc1cccc2c1nc(N)n1nc(CN(CCC(F)(F)F)CC3CCN(c4ncc(F)cn4)CC3)nc21 [Example 14.4, 2-((((1-(5-fluoropyrimidin-2-yl)piperidin-4-yl)methyl)(3,3,3-trifluoropropyl)amino)methyl)-7-methoxy-[1,2,4]triazolo[1,5-c]quinazolin-5-amine] | 38.2 nM
